The values below come from article PMC7413254 (Nature Communications, 2020).

Where a chain is given by its changes, count along the chain named. “And” between values parts separate entries of the source, which are not always exact repeats. Equal entries are not always repeated. Where two headings read alike, the source gives them in different places.

The test system of one test is C6^7G8 parasites. The test can be described thus: P. falciparum proliferation assay. The test is classed as cell-based, Plasmodium falciparum. The protocol: (§1) Parasite proliferation was measured in 96-well plates using a fluorescent DNA-intercalating dye[68],[69]. Synchronous ring-stage parasite cultures (~1% haematocrit and 1% parasitaemia) were incubated with different concentrations of the test compound for 72 h at 37 °C and under reduced O2 conditions. The assay was terminated by freezing and thawing the samples, after which 100 μL of SYBR Safe DNA Gel Stain (Molecular Probes; 0.2 μL/mL) in a lysis buffer (20 mM Tris-HCl, 5 mM EDTA, 0.008% (w/v) saponin and 0.08% (v/v) Triton X-100; pH 7.5) was added to each well. The fluorescence from each well was measured using a Tecan Infinite M1000 PRO microplate reader (excitation wavelength 490 nm; emission wavelength 520 nm). The fluorescence values for the wells containing the highest concentration of the compound were averaged and this value was then subtracted from each of the well values obtained for that 96-well plate. The level of parasite proliferation in the presence of each compound concentration was expressed as a percentage of the proliferation measured in the absence of the compound. The IC50s were determined in SigmaPlot Windows Version 11.0 by a least-squares fit of the equation y = a/[1 + ([compound]/IC50)^c] to the data, where y is the percent parasite proliferation, a is the maximum change in the percent parasite proliferation, and c is a fitted constant. In all cases, five independent experiments were performed (on different days), and within each experiment measurements were averaged from three replicates.

The test system of another test is 7G8 strain. The test can be described thus: P. falciparum proliferation assay. The test is classed as cell-based, Plasmodium falciparum. How it is done: as §1
Another test has as its system C4^Dd2 parasites. The test can be described thus: P. falciparum proliferation assay. It counts as cell-based, Plasmodium falciparum. How it is done: as §1
The next test concerns 3D7 strain. The test can be described thus: P. falciparum proliferation assay. It counts as cell-based, Plasmodium falciparum. How it is done:
as §1

The next test deals with C2^GC03 parasites. The test can be described thus: P. falciparum proliferation assay. The test is classed as cell-based. The following applies: Plasmodium falciparum. The protocol: as §1
Test [1] addresses T1, PfCRT^3D7 in C2^GC03 parasites (Plasmodium falciparum, UniProt Q8IBZ9).
T1 construct: PfCRT also functions as a peptide transporter within its native environment of the DV membrane; expressed in transfected cells; host or cells: P. falciparum pfcrt transfectant line C2^GC03 (saponin-isolated trophozoites)
T1 sequence (Q8IBZ9 1-424): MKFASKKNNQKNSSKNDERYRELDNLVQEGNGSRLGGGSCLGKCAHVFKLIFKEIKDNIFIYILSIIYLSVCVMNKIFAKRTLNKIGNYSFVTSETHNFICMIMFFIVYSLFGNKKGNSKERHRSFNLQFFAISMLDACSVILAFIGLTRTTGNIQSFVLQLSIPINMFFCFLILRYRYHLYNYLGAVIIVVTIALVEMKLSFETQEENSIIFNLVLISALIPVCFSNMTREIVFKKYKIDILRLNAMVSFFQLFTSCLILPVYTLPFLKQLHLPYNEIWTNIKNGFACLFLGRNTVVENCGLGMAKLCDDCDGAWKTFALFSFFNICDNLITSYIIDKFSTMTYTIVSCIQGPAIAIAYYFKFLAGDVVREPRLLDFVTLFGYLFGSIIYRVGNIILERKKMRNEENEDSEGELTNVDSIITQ
The test can be described thus: P. falciparum H+-efflux assay (rate of DV alkalinisation after concanamycin A). It counts as cell-based. The following applies: C2GC03; test solute 10 μM.

Test [2] has as its target T2, PfCRT^Dd2 in C4^Dd2 parasites (Plasmodium falciparum, UniProt Q8IBZ9, A220S/I356T/K76T/M74I/N326S/N75E/Q271E/R371I).
T2 construct: PfCRT also functions as a peptide transporter within its native environment of the DV membrane; expressed in transfected cells; host or cells: P. falciparum pfcrt transfectant line C4^Dd2 (saponin-isolated trophozoites)
T2 sequence (Q8IBZ9 1-424 M74I/N75E/K76T/A220S/Q271E/N326S/I356T/R371I): T1 sequence (Q8IBZ9 1-424) with M74I, N75E, K76T, A220S, Q271E, N326S, I356T, R371I
The test is described as above. It counts as cell-based. The following applies: C4Dd2; test solute 10 μM.

Test [3] addresses T3, PfCRT^7G8 in C6^7G8 parasites (Plasmodium falciparum, UniProt Q8IBZ9, A220S/C72S/I351M/I356L/K76T/N326D).
T3 construct: PfCRT also functions as a peptide transporter within its native environment of the DV membrane; expressed in transfected cells; host or cells: P. falciparum pfcrt transfectant line C6^7G8 (saponin-isolated trophozoites)
T3 sequence (Q8IBZ9 1-424 C72S/K76T/A220S/N326D/I351M/I356L): T1 sequence (Q8IBZ9 1-424) with C72S, K76T, A220S, N326D, I351M, I356L
The description is as above. It counts as cell-based. Conditions: C67G8; test solute 10 μM.

Another test concerns Dd2 strain. The test can be described thus: P. falciparum proliferation assay. It counts as cell-based, Plasmodium falciparum. How it is done: as §1
The next test concerns the target T4, PfNT1 (Plasmodium falciparum, UniProt Q8IDM6).
T4 construct: expressed in transfected cells; host or cells: Xenopus laevis oocytes (stage V-VI), cRNA-injected
The test is classed as cell-based. The protocol:
(§2) Measurements of the cis-inhibition of [^3H]CQ transport via PfCRT^Dd2 or PfCRT^Ecu1110 by a test solute (data presented in Fig. 1 and Supplementary Data 1,2) were performed on oocytes three days post-cRNA-injection[15],[21]. Ten oocytes were washed twice with the relevant ND96 buffer. The assay commenced with the addition of ND96 buffer supplemented with 0.25 μM [^3H]CQ, 15 μM unlabelled CQ, and the unlabelled solute under study (at a concentration specified in the figure legends and Supplementary Data 1, 2). The assay was terminated by removing the reaction buffer and washing the oocytes with ice-cold ND96 buffer. The oocytes were lysed in 10% (w/v) sodium dodecyl sulfate (SDS) and the radioactivity accumulated within each oocyte was measured with a MicroBeta^2 microplate liquid scintillation analyser (PerkinElmer).
(§3) Measurements of the uptake or efflux of a number of other radiolabelled compounds (Fig. 3k; Supplementary Fig. 3) were performed using the methods described above for [^3H]CQ and [^3H]VF-6, respectively.

For the next test, the system named is non-expressing oocytes. It counts as cell-based, Xenopus laevis. The protocol: as §2, §3
The mark [4] stands for this setting: Plasmodium falciparum, C67G8, 72 h, 37 °C, SYBR Safe, mean ± SEM, n = 5, read-out: IC50 (μM), parasite proliferation, Control.
Where [5] appears, read: read-out: IC50 (μM), parasite proliferation, + 1 μM VP, C67G8, + 1 μM verapamil, 72 h, mean ± SEM, n = 5.
Setting [6] is: Plasmodium falciparum, 72 h, read-out: IC50 (μM), parasite proliferation, Control, SEM.
Setting [7] is: read-out: IC50 (μM), parasite proliferation, + 1 μM VP, 7G8, + 1 μM verapamil, 72 h, mean ± SEM, n = 5.
[8] abbreviates: Plasmodium falciparum, DD2, C4Dd2, 72 h, 37 °C, SYBR Safe, mean ± SEM, n = 5, read-out: IC50 (μM), parasite proliferation, Control.
Setting [9] is: Plasmodium falciparum, 3D7, 72 h, 37 °C, SYBR Safe, mean ± SEM, n = 5, read-out: IC50 (μM), parasite proliferation, Control.
Setting [10] is: read-out: IC50 (μM), parasite proliferation, + 1 μM VP, SEM.
The mark [11] stands for this setting: 72 h, read-out: IC50 (μM), parasite proliferation, + 1 μM VP, SEM.
[12] abbreviates: C2GC03, 72 h, 37 °C, SYBR Safe, mean ± SEM, n = 5, read-out: IC50 (μM), parasite proliferation, Control.

T4 sequence (Q8IDM6 whole entry): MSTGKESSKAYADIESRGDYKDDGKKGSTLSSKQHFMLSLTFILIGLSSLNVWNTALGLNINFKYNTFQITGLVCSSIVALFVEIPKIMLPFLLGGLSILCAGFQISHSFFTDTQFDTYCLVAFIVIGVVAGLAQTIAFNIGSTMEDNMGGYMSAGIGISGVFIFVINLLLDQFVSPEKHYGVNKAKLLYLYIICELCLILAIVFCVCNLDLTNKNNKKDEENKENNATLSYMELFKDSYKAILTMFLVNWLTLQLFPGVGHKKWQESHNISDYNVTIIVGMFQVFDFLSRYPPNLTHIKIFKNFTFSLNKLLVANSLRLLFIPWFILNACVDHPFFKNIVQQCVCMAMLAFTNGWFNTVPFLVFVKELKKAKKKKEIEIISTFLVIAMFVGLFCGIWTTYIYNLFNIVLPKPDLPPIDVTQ

As to `CC(C)(C)NC(=O)[C@@H]1CN(Cc2cccnc2)CCN1C[C@@H](O)C[C@@H](Cc1ccccc1)C(=O)N[C@H]1c2ccccc2C[C@H]1O` [Indinavir, indinavir], the IC50 in the test on C6^7G8 parasites (setting [4]) is 1.1 ± 0.05 µM; with C6^7G8 parasites (setting [5]) it was 0.4 ± 0.02 µM; with 7G8 strain (setting [6]), 2.5 ± 0.2 µM; with 7G8 strain (setting [7]), 0.5 ± 0.06 µM; in the test with C4^Dd2 parasites (setting [8]), 2.2 ± 0.1 µM; with 3D7 strain (setting [9]), 4.1 ± 0.1 µM. The figures for the IC50 in the test with 3D7 strain (setting [10]), in the test on C2^GC03 parasites (setting [11]) and in the test on C2^GC03 parasites (setting [12]) were 2.1 ± 0.8 µM, 1.2 ± 0.8 µM and 4.2 ± 0.2 µM, respectively.

For `CC(=O)N[C@@H](CC(C)C)C(=O)N[C@@H](CC(C)C)C(=O)N[C@H](C=O)CCCNC(=N)N` [Leupeptin, leupeptin], the results for the “Effect on rate of DV alkalinisation / H+ leak (in words)” value in test [1], in [2] and in test [3] were “caused a H^+ leak”, “neither peptide exerted an effect” and “induced a H^+ leak”, respectively.

Consider `Cc1c(O)cccc1C(=O)N[C@@H](CSc1ccccc1)[C@H](O)CN1C[C@H]2CCCC[C@H]2C[C@H]1C(=O)NC(C)(C)C` [Nelfinavir, nelfinavir], for which the IC50 with Dd2 strain (Plasmodium falciparum, DD2, 72 h, read-out: IC50 (μM), parasite proliferation, Control, SEM) amounted to 5.7 ± 0.5 µM; in the test with Dd2 strain (read-out: IC50 (μM), parasite proliferation, + 1 μM VP, Dd2, + 1 μM verapamil, 72 h, mean ± SEM, n = 5), 0.5 ± 0.02 µM; in the test with C6^7G8 parasites (setting [4]), 6.2 ± 0.3 µM; in the test with C6^7G8 parasites (setting [5]) it was 1.4 ± 0.1 µM; with 7G8 strain (setting [6]) it was 7.3 ± 0.6 µM; with 7G8 strain (setting [7]) it was 3.1 ± 0.3 µM. In addition, the IC50 was 4.1 ± 0.1 µM with C4^Dd2 parasites (setting [8]); 0.7 ± 0.03 µM with C4^Dd2 parasites (read-out: IC50 (μM), parasite proliferation, + 1 μM VP, C4Dd2, + 1 μM verapamil, 72 h, mean ± SEM, n = 5); 15.3 ± 1.2 µM in the test with 3D7 strain (setting [9]); 5.6 ± 0.8 µM in the test with 3D7 strain (setting [10]); 4.6 ± 0.3 µM in the test on C2^GC03 parasites (setting [11]); 13.1 ± 0.8 µM in the test with C2^GC03 parasites (setting [12]).

As for `O=c1[nH]cnc2nc[nH]c12` [[3H]hypoxanthine], on PfNT1, the “[3H]hypoxanthine transport into the oocyte, PfNT1” value amounted to 100 % PfNT1. Moreover, the “[3H]hypoxanthine transport into the oocyte, non-expressing oocytes” value in the test on non-expressing oocytes was 12.63 % PfNT1 and 13.63 % PfNT1 and 15.33 % PfNT1 and 10.43 % PfNT1 and 11.43 % PfNT1.

In the case of `Cc1cccc(C)c1OCC(=O)N[C@@H](Cc1ccccc1)[C@@H](O)C[C@H](Cc1ccccc1)NC(=O)[C@H](C(C)C)N1CCCNC1=O` [lopinavir], the “Effect on rate of DV alkalinisation / H+ leak (in words)” value in test [1], in test [2] and in test [3] was “without effect” in each case.

For `CC(C)c1nc(CN(C)C(=O)N[C@H](C(=O)N[C@@H](Cc2ccccc2)C[C@H](O)[C@H](Cc2ccccc2)NC(=O)OCc2cncs2)C(C)C)cs1` [ritonavir], the “Effect on rate of DV alkalinisation / H+ leak (in words)” value in test [1], in test [2] and in test [3] was “without effect” throughout.
